Experimental data taken from paper PMC6089974 (Nature Communications, 2018).

Target: T1, TmGalA (Thermotoga maritima, UniProt G4FEF4)
T1 construct: gene galA
Experiment: time-dependent inactivation, dilution assay, residual activity with 4-nitrophenyl α-D-galactopyranoside
Type: biochemical
Details: covalent, irreversible inactivator; Ki from kobs versus concentration (kinact/Ki analysis); 50 mM HEPES pH 7.4, 37 °C, BSA 1 mg/mL; read-out: Km (μM) / Ki

T1 sequence (G4FEF4 whole entry): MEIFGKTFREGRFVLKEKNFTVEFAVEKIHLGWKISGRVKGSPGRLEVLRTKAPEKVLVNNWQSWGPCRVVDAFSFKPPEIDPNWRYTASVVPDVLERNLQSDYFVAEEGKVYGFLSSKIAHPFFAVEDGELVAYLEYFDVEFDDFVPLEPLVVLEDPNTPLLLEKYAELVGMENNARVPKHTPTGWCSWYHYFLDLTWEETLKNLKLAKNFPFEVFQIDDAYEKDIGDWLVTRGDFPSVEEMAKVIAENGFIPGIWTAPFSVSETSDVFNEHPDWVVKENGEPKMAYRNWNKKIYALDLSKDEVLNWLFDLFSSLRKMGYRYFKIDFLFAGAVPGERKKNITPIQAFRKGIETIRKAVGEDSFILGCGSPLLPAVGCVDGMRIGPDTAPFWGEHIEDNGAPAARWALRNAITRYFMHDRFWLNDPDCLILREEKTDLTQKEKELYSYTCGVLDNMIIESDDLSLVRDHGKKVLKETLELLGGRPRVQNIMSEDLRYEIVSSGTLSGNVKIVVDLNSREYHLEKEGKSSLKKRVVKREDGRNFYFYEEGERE

KI (inactivation): 161 ± 18 µM
SMILES: OC[C@@H]1[C@H](O)[C@H](O)[C@@H](O)[C@H]2O[C@@H]12 [compound 8, cyclophellitol analog 8]
